Test results reported in patent publication US20180273571A1, “CONCISE SYNTHESIS OF UREA DERIVATIVES OF AMPHOTERICIN B” (THE BOARD OF TRUSTEES OF THE UNIVERSITY OF ILLINOIS, priority 2015, published 2018).
≈ marks a conversion by molar mass, not a printed value. Where two headings read alike, the source gives them in different places.

Legend:
Saccharomyces cerevisiae = assay: Broth microdilution assay (MIC) against Saccharomyces cerevisiae; format: cell-based; details: for MIC: broth microdilution, read-out: MIC S. cerevisiae
Description: (§1) With efficient access to this novel AmB chemotype, ureas AmBAU, AmBMU, and AmBCU were compared to AmB and a range of previously reported AmB derivatives in an in vitro antifungal and human cell toxicity screen. Yeast toxicity was measured with broth microdilution assays (MIC) against Saccharomyces cerevisiae. Human cell toxicity was studied by determining the amount of compound required to cause 90% hemolysis of human erythrocytes (EH90). […] Methyl esterification (AmBME) retains antifungal activity at 0.25 μM against S. cerevisiae, while decreasing hemolysis concentration to one third that seen with AmB. […] Hemolysis activity remained similar to AmBME and C41MeAmB. Bis-amino alkylated amide derivative AmBNR2 was previously shown to moderately improve the therapeutic index.
(§2) Each derivative proposed herein is tested for biological activity against both yeast and human cells to determine its therapeutic index. A broth microdilution experiment determines the MIC (minimum inhibitory concentration) of each derivative against S. cerevisiae and the clinically relevant C. albicans, thereby establishing the antifungal activity of each novel derivative. To test for toxicity against human cells, each compound is exposed to a hemolysis assay against red blood cells which determines the concentration required to cause 90% lysis of human red blood cells (EH90). Additionally, each compound is exposed to human primary renal tubule cells to determine the toxicity of each compound against kidney cells. These assays when compared against the known values of AmB against the same cell lines determine the improvement in therapeutic index of each compound.

[1] = tested on: human erythrocytes (red blood cells); assay: Hemolysis assay of human erythrocytes (EH90); format: cell-based
Description: as §1, §2

[2] = Wilcock et al., J Am Chem Soc 135:8488 (2013); cited from earlier work
[3] = Wilcock et al., J Am Chem Soc 135:8488 (2013); cited from earlier work; remark: listed apart in the source
yeast = details: in vitro studies, previously reported; cited from earlier work
human cells = details: in vitro studies, previously reported; cited from earlier work
Candida albicans = assay: Broth microdilution MIC against C. albicans; format: cell-based
Description: Urea derivatives AmBAU, AmBMU, and AmBCU maintain potent antifungal activity ranging from 0.125 μM to 3 μM against S. cerevisiae. […] AmBCU required 324 μM to cause 90% hemolysis in red blood cells, more than 30× required by AmB. Encouraged by this initial therapeutic index screen the urea series was further tested against the clinically relevant fungal cell line Candida albicans. C. albicans is the most common human fungal infection. AmB inhibits yeast grown of C. albicans at 0.25 μM. Similar to the trend seen with S. cerevisiae, the potency of the urea derivatives increased with increasing amount of cationic character. AmBAU, AmBMU, and AmBCU require 0.25, 0.5, and 1 μM respectively (Table 2).
as §2, with “Additionally, each compound is exposed to human primary renal tubule cells to determine the toxicity of each compound against kidney cells. These assays when compared against the known values of AmB against the same cell lines determine the improvement in therapeutic index of each compound.” left out

[4] = Acute toxicity, single intravenous administration to healthy mice, lethality; format: in vivo; details: single intravenous 4 mg/kg
Description: FIG. 6 is a graph depicting lethality in healthy mice of single intravenous administration in the doses indicated of AmB, AmBMU, or AmBAU.
In a separate set of experiments, acute toxicity was evaluated by single intravenous administration of 1, 2, 4, 8, 16, 32, or 64 mg/kg AmB or its derivatives to healthy mice, followed by monitoring for lethality. […] AmBAU was drastically less toxic with >50% lethality not being reached until the 64 mg/kg dosage group.

CC(C)/C=C/[C@@H](CC1O[C@](O)(C[C@@H](O)C(C)C)C[C@H](O)[C@H]1C(=O)NCCN)OC1OC(C)C(O)C(N)C1O (stereo partly shown) [AmBAA]
MIC (Saccharomyces cerevisiae; Saccharomyces cerevisiae): 0.03 µM (≈ 0.0164 µg/mL) | EH90 red blood cells ([1]; human): 33.96 ± 8.85 µM

COC(=O)[C@H]1C(C[C@H](/C=C/C(C)C)OC2OC(C)C(O)C(N)C2O)O[C@](O)(C[C@@H](O)C(C)C)C[C@@H]1O (stereo partly shown) [AmBME]
MIC (Saccharomyces cerevisiae; Saccharomyces cerevisiae): 0.25 µM (≈ 0.13 µg/mL) | hemolysis concentration relative to that seen with AmB [1]: one third | EH90 red blood cells ([1]; human): 30.67 ± 5.38 µM

CC(C)/C=C/[C@@H](CC1O[C@](O)(C[C@@H](O)C(C)C)C[C@H](O)[C@H]1C(=O)NCCn1cncn1)OC1OC(C)C(O)C(N(CCCN)CCCN)C1O (stereo partly shown) [AmBNR2]
MIC (Saccharomyces cerevisiae; Saccharomyces cerevisiae): 0.25 µM (≈ 0.178 µg/mL)

CC(C)/C=C/[C@H](O)CC1O[C@](O)(C[C@@H](O)C(C)C)C[C@H](O)[C@H]1C(=O)O (stereo partly shown) [AmdeB]
MIC (Saccharomyces cerevisiae; Saccharomyces cerevisiae): > 500 µM | cell-killing activity in yeast assay (Saccharomyces cerevisiae; in words): completely abolishes cell-killing activity | cell-killing activity in human cell assay [1]: completely abolishes cell-killing activity | EH90 red blood cells ([1]; human): >500 µM

CC1C=CC=CC=CC=CC=CC=CC=CC(OC2CC(N)C(O)C(C)O2)CC2OC(O)(CC(O)CC(O)C(O)CCC(O)CC(O)CC(=O)OC(C)C(C)C1O)CC(O)C2C(=O)O (stereo not shown) [C2′deOAmB]
ergosterol-binding ability [2]: retains ergosterol-binding ability | binding to cholesterol [3]: shows no binding to cholesterol | toxicity to yeast (yeast): toxic to yeast | toxicity to human cells (human cells): not human cells

amphotericin B [AmB]
MIC (Saccharomyces cerevisiae): 0.5 µM | EH90 red blood cells ([1]; amount of compound required to cause 90% hemolysis of human erythrocytes): 10.37 ± 1.17 µM | EH90 red blood cells ([1]; amount of compound required to cause 90% hemolysis of human erythrocytes, listed as Amphotericin B): 10.4 µM | MIC C. albicans (Candida albicans): 0.25 µM | lethality [4]: died within seconds
